Key:
MDA-MB-231 = assay: Cytotoxicity against human MDA-MB-231 cells assessed as decrease in cell viability after 24 hrs by MTT assay; type: functional, cell-based; settings: MDA-MB-231, 24 h
K562 = assay: Cytotoxicity against human K562 cells assessed as decrease in cell viability after 24 hrs by MTT assay; type: functional, cell-based; settings: K562, 24 h
COLO 205 = assay: Cytotoxicity against human COLO205 cells assessed as decrease in cell viability after 24 hrs by MTT assay; type: functional, cell-based; settings: COLO 205, 24 h
[1] = biological target: T1, NAD-dependent protein deacetylase sirtuin-1 (Homo sapiens) (UniProt Q96EB6); assay: Inhibition of human Sirt1 expressed in bacteria at 10 uM using fluorophorelabeled substrate peptide after 15 mins by fluorescence assay relative to control
T1 sequence (whole entry): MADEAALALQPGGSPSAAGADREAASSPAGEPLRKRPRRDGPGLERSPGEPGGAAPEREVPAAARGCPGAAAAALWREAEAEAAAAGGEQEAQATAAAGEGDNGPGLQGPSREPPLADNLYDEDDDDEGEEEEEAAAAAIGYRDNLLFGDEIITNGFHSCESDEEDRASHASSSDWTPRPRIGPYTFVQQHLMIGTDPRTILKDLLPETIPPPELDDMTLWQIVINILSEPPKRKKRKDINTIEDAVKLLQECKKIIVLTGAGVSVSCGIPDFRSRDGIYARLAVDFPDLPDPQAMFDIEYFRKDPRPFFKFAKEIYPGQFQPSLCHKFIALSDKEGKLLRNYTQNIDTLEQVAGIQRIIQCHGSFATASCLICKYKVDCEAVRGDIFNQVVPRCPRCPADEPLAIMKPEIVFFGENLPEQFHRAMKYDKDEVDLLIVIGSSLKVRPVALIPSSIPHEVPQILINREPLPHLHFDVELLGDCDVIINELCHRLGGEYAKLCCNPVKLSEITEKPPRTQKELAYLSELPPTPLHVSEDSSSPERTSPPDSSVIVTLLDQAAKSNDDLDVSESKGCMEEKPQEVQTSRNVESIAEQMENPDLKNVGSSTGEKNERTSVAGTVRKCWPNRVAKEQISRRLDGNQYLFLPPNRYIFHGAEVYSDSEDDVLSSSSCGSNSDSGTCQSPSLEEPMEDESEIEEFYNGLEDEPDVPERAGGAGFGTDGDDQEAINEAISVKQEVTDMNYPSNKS

| Compound | IC50 (MDA-MB-231) [µM] | IC50 (K562) [µM] | IC50 (COLO 205) [µM] | inhibition [1] [%] |
| --- | --- | --- | --- | --- |
| CCN1C(=O)C2(NC(=O)c3c(sc4c3CCCC4)N2)c2ccccc21 (centres undefined) | 34 | 21 | 12 | – |
| CCCc1nn(C)c2c1NC1(CCC(C)(C)CC1)NC2=O | 45 | 19 | 24 | – |
| CCCc1nn(C)c2c1NC1(CCCCCC1)NC2=O | 52 | 21 | 26 | – |
| CCCc1nn(C)c2c1NC1(NC2=O)C(=O)N(C)c2ccccc21 (centres undefined) | 34 | 20 | 15 | – |
| CCCc1nn(C)c2c1NC1(NC2=O)C(=O)N(C(=O)OC(C)(C)C)c2ccccc21 (centres undefined) | 28 | 15 | 10 | 46 to 69 |
| CCCCCCCCCCCCN1C(=O)C2(NC(=O)c3c(sc4c3CCCC4)N2)c2ccccc21 (centres undefined) | 29 | 27 | 16 | – |
| CCCc1nn(C)c2c1NC1(NC2=O)C(=O)N(CC)c2ccccc21 (centres undefined) | 41 | 22 | 16 | – |
| CCCCCCCCCCCCCCCCN1C(=O)C2(NC(=O)c3c(sc4c3CCCC4)N2)c2ccccc21 (centres undefined) | 34 | 19 | 18 | 46 to 69 |
| CCCc1nn(C)c2c1NC1(NC2=O)C(=O)N(Cc2ccccc2)c2ccccc21 (centres undefined) | 38 | 16 | 15 | 46 to 69 |
| CN1C(=O)C2(NC(=O)c3c(sc4c3CCCC4)N2)c2ccccc21 (centres undefined) | 39 | 16 | 9 | 46 to 69 |
| CCCc1nn(C)c2c1NC1(CCCCC1)NC2=O | 35 | 16 | 18 | – |
| CC(C)N1C(=O)C2(NC(=O)c3c(sc4c3CCCC4)N2)c2ccccc21 (centres undefined) | 22 | 12 | 6 | 46 to 69 |
| CCCc1nn(C)c2c1NC1(CCCC1)NC2=O | 34 | 14 | 17 | – |
